# Assays:
# [1] = tested on: PANC-1 pancreatic cancer cell line; assay: Methyl-Tetrazolium viability assay, PANC-1; assay type: cell-based, human; parameters: key to Average MTT: absorbance at 570 nm (optical density); details: for ABSORBANCE: 0.1 μg/mL cisplatin; for MTT 24 h / MTT 48 h / MTT 72 h: Run 1 average
# Description: (§1) The Methyl-Tetrazolium dye assay measures the activity of enzymes in mitochondria. The dye precursor is taken up by cells, where it undergoes reduction to the purple formazan. It measures only the mitochondrial activity and, thus, it is not always a reliable indication of whether the cells themselves are alive or dead, since even a recently dead cell has […] enzyme activity in mitochondria. Intracellular glucose concentration, pH, and time before assay all affect the measurements.
# (§2) The Methyl Tetrazolium, Sulforhodamine B, and Crystal Violet assays were used to assess cell viabilities. The incubation times were 24 hours, 48 hours, and 72 hours. The Nerium oleander extract Anvirzel™ (a hot water extract of oleander obtained from Salud Integral, Honduras) was tested in concentrations ranging from 0.01 ng/mL to 10 ng/mL.
# (§3) Cells were detached by trypsinization (Trypsin-0.25% EDTA, Invitrogen, 25200-072) during the logarithmic phase of culture growth and plated in 96-well plates (18.000 cells/well) (Corning, Costar 359) in a final volume of 200 μl of medium per well. […] The absorbance was measured after 24 hours, 48 hours, and 72 hours of incubation.
# (§4) For the Methyl-Tetrazolium assay, the dye (Sigma, M2128; 5 mg/mL, diluted in phosphate-buffered saline) was added to each well and plates were incubated for 3 hours at 37° C. After the end of the incubation period, the medium was discarded and the cells were rinsed with phosphate-buffered saline. Finally, the formazan crystals were dissolved in dimethylsulphoxide (Sigma, D4540).
# (§5) The optical density of each plate was measured on a μQuant spectrophotometer and the data were analyzed with Gen5 software (μQuant Biomolecular Spectrophotometer MQX200 and Gen5™ Microplate Data Collection & Analysis software, BioTek® Instruments. Inc, April 2008). Absorbance was measured at 570 nm for all assays and a second wavelength was measured in order to subtract noise. For the Methyl-Tetrazolium assay this second wavelength was 630 nm and for the Sulforhodamine B and Crystal Violet assays it was 690 nm.
# [2] = tested on: CALU-1 (non-small cell lung carcinoma); assay: Methyl-Tetrazolium viability assay, CALU-1; assay type: cell-based, human
# Description: Three different viability assays were chosen to complement each other and yielded results dependent on concentration and cell line: the Methyl Tetrazolium dye assay, the Sulforhodamine B fluorescent dye assay, and the Crystal Violet dye assay.
# as §1, §2, §3, §4, §5
smiles,measurement,setting,value
N.N.[Cl][Pt][Cl] [cisplatin],ABSORBANCE,"[1]; PANC-1, 48 h",0.286
same,ABSORBANCE,"[1]; PANC-1, 72 h",0.344
same,Average MTT,"[1]; PANC-1, Run 2, 24 h, 0.1 μg/ml CDDP",0.096
same,Average MTT,"[1]; PANC-1, Run 2, 24 h, 1 μg/ml CDDP",0.029
same,Average MTT,"[1]; PANC-1, Run 2, 24 h, 10 μg/ml CDDP",0.058
same,Average MTT,"[1]; PANC-1, Run 2, 24 h, 100 μg/ml CDDP",0.029
same,Average MTT,"[1]; PANC-1, Run 2, 48 h, 0.1 μg/ml CDDP",0.178
same,Average MTT,"[1]; PANC-1, Run 2, 48 h, 1 μg/ml CDDP",0.037
same,Average MTT,"[1]; PANC-1, Run 2, 48 h, 10 μg/ml CDDP",0.041
same,Average MTT,"[1]; PANC-1, Run 2, 48 h, 100 μg/ml CDDP",0.034
same,Average MTT,"[1]; PANC-1, Run 2, 72 h, 0.1 μg/ml CDDP",0.241
same,Average MTT,"[1]; PANC-1, Run 2, 72 h, 1 μg/ml CDDP",0.033
same,Average MTT,"[1]; PANC-1, Run 2, 72 h, 10 μg/ml CDDP",0.04
same,Average MTT,"[1]; PANC-1, Run 2, 72 h, 100 μg/ml CDDP",0.033
same,Average MTT,"[1]; PANC-1, Run 3, 24 h, 0.1 μg/ml CDDP",0.076
same,Average MTT,"[1]; PANC-1, Run 3, 24 h, 1 μg/ml CDDP",0.02
same,Average MTT,"[1]; PANC-1, Run 3, 24 h, 10 μg/ml CDDP",0.04
same,Average MTT,"[1]; PANC-1, Run 3, 24 h, 100 μg/ml CDDP",0.022
same,Average MTT,"[1]; PANC-1, Run 3, 48 h, 0.1 μg/ml CDDP",0.286
same,Average MTT,"[1]; PANC-1, Run 3, 48 h, 1 μg/ml CDDP",0.043
same,Average MTT,"[1]; PANC-1, Run 3, 48 h, 10 μg/ml CDDP",0.045
same,Average MTT,"[1]; PANC-1, Run 3, 48 h, 100 μg/ml CDDP",0.044
same,Average MTT,"[1]; PANC-1, Run 3, 72 h, 0.1 μg/ml CDDP",0.344
same,Average MTT,"[1]; PANC-1, Run 3, 72 h, 1 μg/ml CDDP",0.049
same,Average MTT,"[1]; PANC-1, Run 3, 72 h, 10 μg/ml CDDP",0.05
same,Average MTT,"[1]; PANC-1, Run 3, 72 h, 100 μg/ml CDDP",0.049
same,MTT 24 h,[1]; 0.1 μg/ml CDDP,0.169
same,MTT 48 h,[1]; 0.1 μg/ml CDDP,0.24
same,MTT 24 h,[1]; 1 μg/ml CDDP,0.035
same,MTT 48 h,[1]; 1 μg/ml CDDP,0.035
same,MTT 72 h,[1]; 1 μg/ml CDDP,0.03
same,MTT 24 h,[1]; 10 μg/ml CDDP,0.048
same,MTT 48 h,[1]; 10 μg/ml CDDP,0.038
same,MTT 72 h,[1]; 10 μg/ml CDDP,0.035
same,MTT 24 h,[1]; 100 μg/ml CDDP,0.034
same,MTT 48 h,[1]; 100 μg/ml CDDP,0.039
same,MTT 72 h,[1]; 100 μg/ml CDDP,0.032
same,Average MTT 24 h,"[2]; CALU-1 Run 1, 0.1 μg/ml CDDP",0.178
same,Average MTT 48 h,"[2]; CALU-1 Run 1, 0.1 μg/ml CDDP",0.272
same,Average MTT 72 h,"[2]; CALU-1 Run 1, 0.1 μg/ml CDDP",0.272
same,Average MTT 24 h,"[2]; CALU-1 Run 1, 1 μg/ml CDDP",0.024
same,Average MTT 48 h,"[2]; CALU-1 Run 1, 1 μg/ml CDDP",0.024
same,Average MTT 72 h,"[2]; CALU-1 Run 1, 1 μg/ml CDDP",0.032
same,Average MTT 24 h,"[2]; CALU-1 Run 1, 10 μg/ml CDDP",0.043
same,Average MTT 48 h,"[2]; CALU-1 Run 1, 10 μg/ml CDDP",0.031
same,Average MTT 72 h,"[2]; CALU-1 Run 1, 10 μg/ml CDDP",0.024
same,Average MTT 24 h,"[2]; CALU-1 Run 1, 100 μg/ml CDDP",0.033
same,Average MTT 48 h,"[2]; CALU-1 Run 1, 100 μg/ml CDDP",0.033
same,Average MTT 72 h,"[2]; CALU-1 Run 1, 100 μg/ml CDDP",0.019
same,Average MTT 24 h,"[2]; CALU-1 Run 2, 0.1 μg/ml CDDP",0.244
same,Average MTT 48 h,"[2]; CALU-1 Run 2, 0.1 μg/ml CDDP",0.322
same,Average MTT 72 h,"[2]; CALU-1 Run 2, 0.1 μg/ml CDDP",0.29
same,Average MTT 24 h,"[2]; CALU-1 Run 2, 1 μg/ml CDDP",0.055
same,Average MTT 48 h,"[2]; CALU-1 Run 2, 1 μg/ml CDDP",0.024

# — US20190343908A1, “Therapeutic Combination for the Treatment of Cancer” (Nerium Biotechnology Inc., priority 2011, published 2019)
